System: C2C12 myotubes
Experiment: In vitro puromycin incorporation (muscle protein synthesis) in differentiated C2C12 myotubes stimulated with insulin + leucine, Western blot
Type: cell-based, mouse
Experimental: C2C12 mouse myoblasts are obtained from the American Type Culture Source Collection (no. CRL-1772). Myoblasts are cultured at 37° C. in an atmosphere of 5% CO2 in grown medium consisting of Dulbecco's modified Eagle's medium (DMEM) supplemented with 10% fetal calf serum and antibiotics. Myotube C2C12 differentiation is induced by withdrawing fetal calf serum from confluent cells and adding 10 μg/ml insulin, 5 μg/ml transferrin and 2% horse serum. 8-days-differentiated C2C12 myotubes are treated with medium containing EPA and/or MA for 16 hours. After a 4-hour starvation period, C2C12 myotubes were treated with insulin (100 nM)+Leucine (5 mM) for in total 60 min. A limitation of growing myotubes in vitro is that the cells are not able to produce insulin when administered leucine whereas in vivo the pancreas starts producing insulin when leucine is administered to a subject. Common to this model, to compensate for this limitation, the in vitro experiment requires the separate administration of insulin. […] By western-Blot analyses the level of protein synthesis was analyzed. This gives quantitative information on the incorporation of puromycin which is a measure for intracellular pathways regulating protein synthesis (Akt, mTOR) and/or a direct measure of protein synthesis. […]

## CCCCCCCCCCCCCC(=O)O [MA, myristic acid]
25 μM EPA without MA, or 25 or 50 μM MA without EPA, 16 hours, then insulin (100 nM)+Leucine (5 mM) 60 min, relative to control without stimulation and without fatty acids (indexed at 100)
  puromycin incorporation, individual fatty acid: have an effect on puromycin incorporation
MA without EPA, 25 μM vs 50 μM, insulin + leucine stimulation
  puromycin incorporation, effect of raising MA from 25 μM to 50 μM vs adding 25 μM EPA to 25 μM MA: much smaller effect

Source: patent US20220288002A1, “Composition comprising EPA, MA and leucine for improving muscle function” (N.V. Nutricia, priority 2019, published 2022)
